# From US5432179A, “Piperazine derivatives and pharmaceuticals containing the same” (Zeria Pharmaceutical Co., Ltd., priority 1991, dated 1995)
# pIC50: −log10 of the molar value.
# System: passive cutaneous anaphylaxis (PCA)
# Assay: Antiallergic effects: passive cutaneous anaphylaxis (PCA), inhibition of leaked color amount
# Format: in vivo, male SD rat
# Settings: rat PCA; oral, 10 mg/4 ml/kg one hour before the administration of antigen
# Description: The back of a male SD rat (150-250 g in weight) was shaved in advance. Physiological saline and 0.1 ml of anti DNP-AS (Dinitrophenyl conjugated Ascaris) IgE serum which had been diluted to a suitable concentration with physiological saline were intradermally injected there. Fourty-eight hours after sensitization, the animals were challenged with 1 ml of 0.5% Evans blue physiological saline containing 2.5 mg/ml of DNP-BSA (dinitrophenyl conjugated bovine serum albumin) via the tail vein. Thirty minutes later, they were sacrificed under exsanguination and the dorsal skin was removed and the exuded dye was measured according to the method proposed by Harada et al. [Allergy, 15, 1-7(1966)]. The leaked color amount caused by the passive cutaneous anaphylaxis (PCA) was determined by subtracting the leaked color amount of the site to which physiological saline was administered from that of the PCA site. Each test compound was suspended in 5% gum arabic or 0.5% methylcellulose and the-resulting suspension was orally administered at the rate of 10 mg/4 ml/kg one hour before the administration of antigen. The efficacy of the test compound was evaluated by an ihibition rate (antiallergic effects) of the leaked color amount.
row,Compound,Antiallergic effects (inhibition rate of the leaked color amount)
1,2-[2-[4-[(4-Chlorophenyl)phenylmethyl]-1-piperazinyl]ethoxy]-1-tetrazol-5-ylmethyl [Example 69],81.0%
2,"O=C(Nc1nnn[nH]1)c1ccccc1OCCCN1CCN(C(c2ccccc2)c2ccc(Cl)cc2)CC1 (stereo not drawn) [Example 45, 2-[3-[4-[(4-Chlorophenyl)phenylmethyl]-1-piperazinyl]propoxy]-N-1H-tetrazol-5-yl-benzamide]",72.4%
3,"O=C(Nc1nnn[nH]1)c1ccccc1OCCN1CCN(C(c2ccccc2)c2ccc(Cl)cc2)CC1 (stereo not drawn) [Example 41, 2-[2-[4-[(4-Chlorophenyl)phenylmethyl]-1-piperazinyl]ethoxy]-N-1H-tetrazol-5-yl-benzamide]",52.3%
4,"O=C(COCCN1CCN(C(c2ccccc2)c2ccc(Cl)cc2)CC1)Nc1nnn[nH]1 (stereo not drawn) [Example 50, 2-[2-[4-[(4-Chlorophenyl)phenylmethyl]-1-piperazinyl]ethoxy]-N-1H-tetrazol-5-yl-acetamide]",60.4%
5,"O=C(O)c1ccccc1OCCN1CCN(C(c2ccccc2)c2ccccc2)CC1 [Example 9, 2-[2-[4-(Diphenylmethyl]-1-piperazinyl]ethoxy]-benzoic acid]",61.9%
6,"O=C(Nc1nnn[nH]1)c1ccccc1SCCN1CCN(C(c2ccccc2)c2ccc(Cl)cc2)CC1 (stereo not drawn) [Example 44, 2-[[2-[4-[(4-Chlorophenyl)phenylmethyl]-1-piperazinyl]ethyl]thio]-N-1H-tetrazol-5-yl-benzamide]",54.7%
7,"O=C(O)c1ccccc1OCCN1CCN(C(c2ccccc2)c2ccc(Cl)cc2)CC1 (stereo not drawn) [Example 5, 2-[2-[4-[(4-Chlorophenyl)phenylmethyl]-1-piperazinyl]ethoxy]benzoic acid]",86.4%
8,"O=C(Nc1nnn[nH]1)c1ccccc1OCCCN1CCN(C(c2ccccc2)c2ccccc2)CC1 [Example 46, 2-[3-[4-(Diphenylmethyl)-1-piperazinyl]propoxy]-N-1H-tetrazol-5-yl-benzamid]",59.8%

# System: contraction reaction of the isolated ileum caused by histamine
# Assay: Antihistamic effects: inhibition of histamine-induced contraction of isolated guinea pig ileum (Magnus bath)
# Format: cell-based, Hartley male guinea pig
# Settings: Cavia porcellus, histamine 3×10^-7 mole, test compound for 3 minutes before histamine, 30° C., read-out: antihistamic action (50% inhibition concentration: IC50 value)
# Description: From a Hartley male guinea pig (300-600 g in weight), the ileum was isolated. The ileum was attached to a holder under a vesting tension of 0.5 g in a Magnus bath (30° C., under aeration) filled with 10 ml of the Tyrode solution. As a contraction reaction of the isolated ileum caused by histamine (3×10^-7 mole), an isometrical change in muscular tension was measured. The ileum was treated with the test compound for 3 minutes before the addition of histamine to study its effects and then its antihistamic action (50% inhibition concentration: IC50 value) was determined.
# Incidentally, the IC50 value of Cetirizine (the compound disclosed in Japanese Patent Laid-Open No. 149282/1982) was determined as a control. Its IC value was 2.40 μM.
row,pIC50,Compound
1,5.62,O=C(O)COCCN1CCN(C(c2ccccc2)c2ccc(Cl)cc2)CC1 (stereo not drawn) [Cetirizine]
